Where two headings read alike, the source gives them in different places.
How the values were obtained:
Puccinia triticina = assay: Fungicidal activity: wheat brown rust (PUCCRT), percent disease control on wheat seedlings; type: in vivo; conditions: for pest or weed control at 100 ppm / pest or weed control at 121.5 g/ha: Puccinia triticina; for pest or weed control at 100 ppm / PUCCRT 3DC disease control rating / PUCCRT 1DP disease control rating: HV (high volume) activity at 100 ppm; for pest or weed control at 121.5 g/ha: LV (low volume) activity at 121.5 g/H
Protocol: Technical grades of materials were dissolved in acetone, which were then mixed with nine volumes of water containing 110 ppm Triton X-100. The fungicide solutions were applied onto wheat seedlings using an automated booth sprayer to run-off. All sprayed plants were allowed to air dry prior to further handling. All fungicides were evaluated using the aforementioned method for their activity vs. all target diseases, unless stated otherwise. Wheat leaf blotch and brown rust activity were also evaluated using track spray applications, in which case the fungicides were formulated as EC formulations, containing 0.1% Trycol 5941 in the spray solutions. Wheat plants (variety Yuma) were grown from seed in a greenhouse in 50% mineral soil/50% soil-less Metro mix until the first leaf was fully emerged, with 7-10 seedlings per pot. These plants were inoculated with an aqueous spore suspension of Puccinia triticina either prior to or after fungicide treatments. After inoculation the plants were kept in a dark dew room at 22° C. with 100% relative humidity overnight to permit spores to germinate and infect the leaf. The plants were then transferred to a greenhouse set at 24° C. for disease to develop. Fungicide formulation, application and disease assessment followed the procedures as described in the Example A. Results of the evaluations are shown below in Table 4.

Zymoseptoria tritici = assay: Fungicidal activity: leaf blotch of wheat (SEPTTR), percent disease control on wheat seedlings; type: in vivo; conditions: for pest or weed control at 100 ppm / pest or weed control at 121.5 g/ha: Zymoseptoria tritici; for pest or weed control at 100 ppm / SEPTTR 1DP disease control rating / SEPTTR 3DC disease control rating: HV (high volume) activity at 100 ppm; for pest or weed control at 121.5 g/ha: LV (low volume) activity at 121.5 g/H
Protocol: Technical grades of materials were dissolved in acetone, which were then mixed with nine volumes of water containing 110 ppm Triton X-100. The fungicide solutions were applied onto wheat seedlings using an automated booth sprayer to run-off. All sprayed plants were allowed to air dry prior to further handling. All fungicides were evaluated using the aforementioned method for their activity vs. all target diseases, unless stated otherwise. Wheat leaf blotch and brown rust activity were also evaluated using track spray applications, in which case the fungicides were formulated as EC formulations, containing 0.1% Trycol 5941 in the spray solutions. Wheat plants (variety Yuma) were grown from seed in a greenhouse in 50% mineral soil/50% soil-less Metro mix until the first leaf was fully emerged, with 7-10 seedlings per pot. These plants were inoculated with an aqueous spore suspension of Zymoseptoria tritici either prior to or after fungicide treatments. After inoculation the plants were kept in 100% relative humidity (one day in a dark dew chamber followed by two to three days in a lighted dew chamber at 20° C.) to permit spores to germinate and infect the leaf. The plants were then transferred to a greenhouse set at 20° C. for disease to develop. When disease symptoms were fully expressed on the 1st leaves of untreated plants, infection levels were assessed on a scale of 0 to 100 percent disease severity. Percent disease control was calculated using the ratio of disease severity on treated plants relative to untreated plants.

[1] = 24 h, 1 Day Protectant, read-out: PUCCRT 1DP disease control rating
[2] = 72 h, 3 Day Curative, read-out: PUCCRT 3DC disease control rating
[3] = 24 h, 1 Day Protectant, read-out: SEPTTR 1DP disease control rating
[4] = 72 h, 3 Day Curative, read-out: SEPTTR 3DC disease control rating

Row | Structure (SMILES) | pest or weed control at 100 ppm (Puccinia triticina; [1]) | pest or weed control at 100 ppm (Puccinia triticina; [2]) | pest or weed control at 100 ppm (Zymoseptoria tritici; [3]) | pest or weed control at 100 ppm (Zymoseptoria tritici; [4]) | further results
1 | COc1ccnc(C(=O)N[C@@H](C)C(=O)O[C@@H](C)[C@H](Sc2cccc(Cl)c2)c2ccccc2)c1O [Compound 35] | > 80% | > 80% | ≤ 80% | ≤ 80% | –
2 | COc1ccnc(C(=O)N[C@@H](C)C(=O)O[C@@H](C)[C@H](Sc2ccc(C)cc2)c2ccccc2)c1O [Compound 36] | > 80% | > 80% | ≤ 80% | ≤ 80% | –
3 | COc1ccnc(C(=O)N[C@@H](C)C(=O)O[C@@H](C)[C@H](Sc2ccc(F)cc2)c2ccccc2)c1O [Compound 37] | ≤ 80% | ≤ 80% | ≤ 0% | ≤ 80% | –
4 | COc1ccnc(C(=O)N[C@@H](C)C(=O)O[C@@H](C)[C@H](Sc2ccc(F)cc2C)c2ccccc2)c1O [Compound 38] | > 80% | – | > 80% | > 80% | PUCCRT 3DC disease control rating (Puccinia triticina; 3 Day Curative): A (>80)
5 | COc1ccnc(C(=O)N[C@@H](C)C(=O)O[C@@H](C)[C@H](Sc2ccccc2)c2ccc(F)cc2)c1O [Compound 39] | > 80% | > 80% | > 80% | > 80% | –
6 | CCc1cc(F)ccc1[C@@H](Sc1ccccc1)[C@H](C)OC(=O)[C@H](C)NC(=O)c1nccc(OC)c1O [Compound 40] | > 80% | – | > 80% | > 80% | PUCCRT 3DC disease control rating (Puccinia triticina; 3 Day Curative): A (>80)
7 | COc1ccnc(C(=O)N[C@@H](C)C(=O)O[C@@H](C)[C@@H](c2ccccc2)S(=O)(=O)c2ccc(F)cc2)c1O [Compound 41] | ≤ 0% | ≤ 0% | ≤ 80% | ≤ 80% | –
8 | COc1ccnc(C(=O)N[C@@H](C)C(=O)O[C@@H](C)[C@@H](c2ccccc2)[S+]([O-])c2ccc(F)cc2)c1O (some centres unmarked) [Compound 42] | ≤ 0% | ≤ 0% | ≤ 0% | ≤ 80% | –
9 | COc1ccnc(C(=O)N[C@@H](C)C(=O)O[C@@H](C)[C@H](Sc2ccc(C)cc2C)c2ccccc2)c1O [Compound 44] | > 80% | ≤ 80% | > 80% | ≤ 80% | –
10 | COc1ccnc(C(=O)N[C@@H](C)C(=O)O[C@@H](C)[C@H](SCc2ccccc2)c2ccccc2)c1O [Compound 45] | ≤ 80% | ≤ 80% | ≤ 0% | ≤ 80% | –
11 | COc1ccnc(C(=O)N[C@@H](C)C(=O)O[C@@H](C)[C@H](SC(C)C)c2ccccc2)c1O [Compound 46] | ≤ 80% | ≤ 80% | ≤ 0% | > 80% | –
12 | COc1ccnc(C(=O)N[C@@H](C)C(=O)O[C@@H](C)[C@H](SCC(C)C)c2ccccc2)c1O [Compound 47] | ≤ 80% | ≤ 80% | ≤ 0% | > 80% | –
13 | COc1ccnc(C(=O)N[C@@H](C)C(=O)O[C@@H](C)[C@@H](c2ccccc2)S(=O)(=O)Cc2ccccc2)c1O [Compound 48] | ≤ 0% | ≤ 0% | ≤ 80% | ≤ 80% | –
14 | COc1ccnc(C(=O)N[C@@H](C)C(=O)O[C@@H](C)[C@H](Sc2ccc(F)cc2C)c2ccc(F)cc2C)c1O [Compound 49] | > 80% | ≤ 80% | > 80% | > 80% | –
15 | COc1ccnc(C(=O)N[C@@H](C)C(=O)O[C@@H](C)[C@H](Sc2ccccc2)c2ccc(F)cc2C)c1O [Compound 51] | > 80% | ≤ 80% | > 80% | > 80% | –
16 | COc1ccnc(C(=O)N[C@@H](C)C(=O)O[C@@H](C)[C@H](Sc2ccc(C(F)(F)F)cn2)c2ccccc2)c1O [Compound 52] | ≤ 80% | ≤ 80% | ≤ 0% | ≤ 80% | –
17 | COc1ccnc(C(=O)N[C@@H](C)C(=O)O[C@@H](C)[C@H](Sc2ccccc2)c2ccc(C)cc2)c1O [Compound 53] | > 80% | > 80% | > 80% | > 80% | –
18 | COc1ccnc(C(=O)N[C@@H](C)C(=O)O[C@@H](C)[C@H](Sc2ccccc2)c2ccccc2)c1O [Compound 54] | > 80% | ≤ 80% | ≤ 80% | > 80% | –
19 | COc1ccnc(C(=O)N[C@@H](C)C(=O)O[C@@H](C)[C@H](Sc2ccc(F)cc2C)c2ccccc2)c1O [Compound 55] | – | – | – | – | PUCCRT 1DP disease control rating (Puccinia triticina; 1 Day Protectant): A (>80); PUCCRT 3DC disease control rating (Puccinia triticina; 3 Day Curative): D (≤0); SEPTTR 1DP disease control rating (Zymoseptoria tritici; 1 Day Protectant): A (>80); SEPTTR 3DC disease control rating (Zymoseptoria tritici; 3 Day Curative): B (≤80)
20 | CCc1cc(F)ccc1[C@@H](Sc1ccccc1)[C@H](C)OC(=O)[C@H](C)NC(=O)c1nccc(OC)c1O [Compound 57] | – | – | – | – | PUCCRT 1DP disease control rating (Puccinia triticina; 1 Day Protectant): A (>80); PUCCRT 3DC disease control rating (Puccinia triticina; 3 Day Curative): D (≤0); SEPTTR 1DP disease control rating (Zymoseptoria tritici; 1 Day Protectant): B (≤80); SEPTTR 3DC disease control rating (Zymoseptoria tritici; 3 Day Curative): A (>80)
21 | CCc1cc(F)ccc1[C@@H](Sc1ccccc1)[C@H](C)OC(=O)[C@H](C)NC(=O)c1nccc(OC)c1OC(C)=O [Compound 59] | – | – | – | – | pest or weed control at 121.5 g/ha (Puccinia triticina; [1]): > 80%; pest or weed control at 121.5 g/ha (Puccinia triticina; [2]): ≤ 80%; pest or weed control at 121.5 g/ha (Zymoseptoria tritici; [3]): ≤ 80%; pest or weed control at 121.5 g/ha (Zymoseptoria tritici; [4]): ≤ 80%
22 | COc1ccnc(C(=O)N[C@@H](C)C(=O)O[C@@H](C)[C@H](Sc2ccc(F)cc2C)c2ccccc2)c1OC(C)=O [Compound 60] | – | – | – | – | pest or weed control at 121.5 g/ha (Puccinia triticina; [1]): > 80%; pest or weed control at 121.5 g/ha (Puccinia triticina; [2]): ≤ 80%; pest or weed control at 121.5 g/ha (Zymoseptoria tritici; [3]): > 80%; pest or weed control at 121.5 g/ha (Zymoseptoria tritici; [4]): ≤ 0%
23 | COc1ccnc(C(=O)N[C@@H](C)C(=O)O[C@@H](C)[C@H](Sc2ccccc2)c2ccc(F)cc2)c1OC(C)=O [Compound 61] | – | – | – | – | pest or weed control at 121.5 g/ha (Puccinia triticina; [1]): > 80%; pest or weed control at 121.5 g/ha (Puccinia triticina; [2]): ≤ 80%; pest or weed control at 121.5 g/ha (Zymoseptoria tritici; [3]): ≤ 80%; pest or weed control at 121.5 g/ha (Zymoseptoria tritici; [4]): ≤ 0%
24 | COc1ccnc(C(=O)N[C@@H](C)C(=O)O[C@@H](C)[C@@H](c2ccccc2)S(=O)(=O)Cc2ccccc2)c1OC(C)=O [Compound 72] | – | – | – | – | pest or weed control at 121.5 g/ha (Puccinia triticina; [1]): ≤ 0%; pest or weed control at 121.5 g/ha (Puccinia triticina; [2]): ≤ 0%; pest or weed control at 121.5 g/ha (Zymoseptoria tritici; [3]): ≤ 80%; pest or weed control at 121.5 g/ha (Zymoseptoria tritici; [4]): ≤ 0%
25 | COc1ccnc(C(=O)N[C@@H](C)C(=O)O[C@@H](C)[C@@H](c2ccccc2)[S+]([O-])c2ccc(C)cc2C)c1OC(C)=O (some centres unmarked) [Compound 73] | – | – | – | – | pest or weed control at 121.5 g/ha (Puccinia triticina; [1]): ≤ 0%; pest or weed control at 121.5 g/ha (Puccinia triticina; [2]): ≤ 0%; pest or weed control at 121.5 g/ha (Zymoseptoria tritici; [3]): ≤ 80%; pest or weed control at 121.5 g/ha (Zymoseptoria tritici; [4]): ≤ 0%
26 | COc1ccnc(C(=O)N[C@@H](C)C(=O)O[C@@H](C)[C@@H](c2ccccc2)[S+]([O-])Cc2ccccc2)c1OC(C)=O (some centres unmarked) [Compound 74] | – | – | – | – | pest or weed control at 121.5 g/ha (Puccinia triticina; [1]): ≤ 0%; pest or weed control at 121.5 g/ha (Puccinia triticina; [2]): ≤ 0%; pest or weed control at 121.5 g/ha (Zymoseptoria tritici; [3]): ≤ 0%; pest or weed control at 121.5 g/ha (Zymoseptoria tritici; [4]): ≤ 0%

— patent US10173982B2, “Picolinamides as fungicides” (Dow AgroSciences LLC, priority 2016, dated 2019)
